21 molecules from patent US20180273528A1 (LES LABORATOIRES SERVIER, priority 2015, published 2018) can be followed below.

The target of test [1] is T1, His-TEV-DYRK1A Kinase domain (aa127-485) (Homo sapiens, UniProt Q13627).
T1 construct: His-TEV-DYRK1A Kinase domain (aa127-485); His tag (N); TEV protease cleavage site (N)
Description: Kinase ADP assay (ADP Hunter), DYRK1A kinase domain. The class given is biochemical. Particulars: 20 μM ATP. In short, it runs like this: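 Readout is ADP Hunter fluorescence at 590 nm, developed 20 min at 30 °C after the kinase step. That step ran 10 min at 30 °C in Hepes pH 7.4 (10 mM MgCl2, 1 mM EGTA, 0.02% Tween20) containing 20 μM ATP, 40 μM peptide and 20 nM enzyme plus compound.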

The next test has as its target T2, CLK1 (Homo sapiens, UniProt P49759).
T2 construct: full-length human kinases from Carna Biosciences; purchased Carna Biosciences 04-126
Description: Kinase TR-FRET assay, CLK1. Type of test: biochemical. The note with it: full-length human kinase, 10 μM ATP. The protocol: Inhibition of the enzymatic activity of human kinases was evaluated in a Time-Resolved Fluorescence Resonance Energy Transfer (TR-FRET) assay in 384-well reaction plates. […] Test compounds of the invention were added in reaction buffer at a range of concentrations from 0.1 nM to 30 μM. Following addition of EDTA (Sigma E7889, 10 mM) to stop the reaction, Europium-labelled mouse monoclonal antibody recognizing phospho-Thr232 in MBP (Perkin Elmer TRF0201, 1 nM) was added.
In general terms: In TR-FRET formats the signal depends on donor and acceptor labels being close together.

Test [2] has as its target T3, DYRK1A (Homo sapiens, UniProt Q13627). Description: Cellular DYRK1 autophosphorylation assay in U2-OS cells. Type of test: cell-based. Also on record: full-length, wild-type human DYRK1A (NM_001396) with an HA tag; expressed in transfected cells; host or cells: human U2-OS osteosarcoma cells, transient transfection of a pcDNA3.1 plasmid. The note with it: U2-OS cells transfected with HA-tagged human DYRK1A, 5 hours exposure; read-out: IC50 (μM) P-Ser520-Dyrk1A -Cell assay. In short, it runs like this: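 IC50 derived from dose-response curves of phospho-Ser520-DYRK1A (blots normalised to total DYRK1A), quantified by either immunoblotting with chemiluminescence or Mesoscale electrochemiluminescent ELISA. Compounds applied to U2-OS cells across several concentrations for 5 hours.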

A further test has as its target T4, DYRK1B (Homo sapiens, UniProt Q9Y463).
T4 construct: full-length human kinases from Carna Biosciences; purchased Carna Biosciences 04-131
Description: Kinase TR-FRET assay, DYRK1B. The class given is biochemical. Particulars: full-length human kinase, 10 μM ATP. A digest of the protocol:
(§1)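 Compounds tested at 0.1 nM to 30 μM in reaction buffer; reaction stopped with 10 mM EDTA. Phosphorylated MBP detected with 1 nM Europium-labelled anti-phospho-Thr232 antibody by TR-FRET.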

The next test has as its target T5, CDK9 (Homo sapiens, UniProt P50750).
T5 construct: full-length human kinases from Carna Biosciences; purchased Carna Biosciences 04-110
Description: Kinase TR-FRET assay, CDK9. Type of test: biochemical. The note with it: full-length human kinase, 10 μM ATP. In short, it runs like this:
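Full-length human CDK9 (0.9 ng/μl) incubated 100 min at room temperature with 10 μM ATP, 100 nM ULight-MBP peptide and compound (0.1 nM–30 μM) in 50 mM HEPES pH 7.4, 1 mM EGTA, 10 mM MgCl2, 2 mM DTT, 0.01% Tween20. Stopped with 10 mM EDTA, then 1 nM Eu-anti-phospho-Thr232 MBP antibody added for 1 h. TR-FRET read at 665/620 nm with 340 nm excitation.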

For test [3], the target named is T3, DYRK1A. Description: Kinase TR-FRET assay, DYRK1A. Type of test: biochemical. Also on record: full-length, wild-type human DYRK1A (NM_001396) with an HA tag; expressed in transfected cells; host or cells: human U2-OS osteosarcoma cells, transient transfection of a pcDNA3.1 plasmid. Particulars: full-length human kinase, 10 μM ATP. A digest of the protocol:
as §1

For orientation: IC50 means the point on the concentration scale where inhibition reaches its midpoint.

T5 sequence (P50750 whole entry): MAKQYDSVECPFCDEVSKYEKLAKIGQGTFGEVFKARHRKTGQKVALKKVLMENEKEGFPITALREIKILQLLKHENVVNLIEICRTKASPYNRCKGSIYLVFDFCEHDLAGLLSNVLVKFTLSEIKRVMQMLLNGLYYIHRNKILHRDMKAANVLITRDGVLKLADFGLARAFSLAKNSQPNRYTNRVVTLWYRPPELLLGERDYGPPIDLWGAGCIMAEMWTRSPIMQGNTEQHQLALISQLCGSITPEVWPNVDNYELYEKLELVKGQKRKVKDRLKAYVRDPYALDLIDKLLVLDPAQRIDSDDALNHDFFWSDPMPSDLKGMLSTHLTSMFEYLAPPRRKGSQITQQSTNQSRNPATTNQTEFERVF
T5 sequence (O60563 whole entry partner): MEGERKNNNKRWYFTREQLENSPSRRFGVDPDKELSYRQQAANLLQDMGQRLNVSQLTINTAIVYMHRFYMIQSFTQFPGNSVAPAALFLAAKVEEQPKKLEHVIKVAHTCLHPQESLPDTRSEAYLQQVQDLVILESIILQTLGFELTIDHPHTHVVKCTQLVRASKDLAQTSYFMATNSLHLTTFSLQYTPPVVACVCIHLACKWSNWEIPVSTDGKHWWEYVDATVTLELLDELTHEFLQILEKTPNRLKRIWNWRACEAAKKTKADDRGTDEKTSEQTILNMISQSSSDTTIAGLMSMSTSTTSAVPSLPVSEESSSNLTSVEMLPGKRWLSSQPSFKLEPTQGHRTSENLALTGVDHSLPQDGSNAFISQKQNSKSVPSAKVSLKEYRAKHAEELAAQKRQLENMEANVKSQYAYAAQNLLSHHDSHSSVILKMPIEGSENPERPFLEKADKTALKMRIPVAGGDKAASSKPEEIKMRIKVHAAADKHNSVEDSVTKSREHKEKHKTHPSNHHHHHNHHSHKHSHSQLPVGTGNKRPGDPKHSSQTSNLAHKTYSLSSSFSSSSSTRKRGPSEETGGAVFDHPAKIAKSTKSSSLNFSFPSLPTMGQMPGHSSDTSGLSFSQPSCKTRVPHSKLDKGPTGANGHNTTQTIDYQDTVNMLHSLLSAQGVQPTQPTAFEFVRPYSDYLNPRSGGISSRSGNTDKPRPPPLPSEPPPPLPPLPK
T4 sequence (Q9Y463 whole entry): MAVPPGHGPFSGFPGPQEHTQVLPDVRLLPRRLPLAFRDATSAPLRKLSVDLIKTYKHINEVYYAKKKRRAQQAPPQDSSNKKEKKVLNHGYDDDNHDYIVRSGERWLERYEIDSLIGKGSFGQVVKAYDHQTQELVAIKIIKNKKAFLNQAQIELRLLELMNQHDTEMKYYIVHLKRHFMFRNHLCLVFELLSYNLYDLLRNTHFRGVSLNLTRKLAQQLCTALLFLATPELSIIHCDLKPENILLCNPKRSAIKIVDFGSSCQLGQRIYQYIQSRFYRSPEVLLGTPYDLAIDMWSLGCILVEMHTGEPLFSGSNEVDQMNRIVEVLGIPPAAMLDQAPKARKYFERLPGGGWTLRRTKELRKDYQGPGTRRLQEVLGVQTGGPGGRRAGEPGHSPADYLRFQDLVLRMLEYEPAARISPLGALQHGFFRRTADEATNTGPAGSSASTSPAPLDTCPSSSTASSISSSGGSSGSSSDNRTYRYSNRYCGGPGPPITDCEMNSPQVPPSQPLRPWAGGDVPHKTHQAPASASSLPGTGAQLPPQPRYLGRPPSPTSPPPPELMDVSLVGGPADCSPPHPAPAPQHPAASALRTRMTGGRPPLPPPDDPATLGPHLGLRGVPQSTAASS
T2 sequence (P49759 1-526 isoform P49759-3): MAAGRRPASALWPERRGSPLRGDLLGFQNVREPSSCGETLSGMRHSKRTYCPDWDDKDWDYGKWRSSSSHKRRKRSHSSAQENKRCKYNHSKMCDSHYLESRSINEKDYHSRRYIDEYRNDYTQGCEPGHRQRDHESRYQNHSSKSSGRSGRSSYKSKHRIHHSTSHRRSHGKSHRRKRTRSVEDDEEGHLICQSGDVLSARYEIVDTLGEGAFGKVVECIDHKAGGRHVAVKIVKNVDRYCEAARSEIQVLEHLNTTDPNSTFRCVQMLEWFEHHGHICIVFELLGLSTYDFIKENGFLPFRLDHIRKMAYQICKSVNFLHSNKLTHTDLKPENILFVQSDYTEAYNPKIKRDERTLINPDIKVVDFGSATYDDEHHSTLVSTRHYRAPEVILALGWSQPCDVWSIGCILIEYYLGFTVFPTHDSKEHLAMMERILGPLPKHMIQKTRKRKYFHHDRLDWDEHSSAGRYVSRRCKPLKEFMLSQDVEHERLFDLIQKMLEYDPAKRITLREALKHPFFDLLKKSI

For the molecule `Cc1nc2ccc(-c3cc(N)nc(N)c3)nc2n1C[C@@H]1C[C@H]1c1ccccc1` (single isomer, unassigned) [Example 110], the IC50 in test [1] is 0.019 µM; against CLK1, 0.02 µM; on DYRK1A [2] it was 0.042 µM.

`Cc1nc2ccc(-c3cc(N)nc(N)c3)nc2n1CC1CCOC1` (stereo not shown) [Example 41, 4-[2-methyl-3-(tetrahydrofuran-3-ylmethyl)-3H-imidazo[4,5-b]pyridin-5-yl]pyridine-2,6-diamine]: the IC50 in test [1] was found to be 0.011 µM; at DYRK1B, 0.011 µM; against CDK9, 2.71 µM; against DYRK1A [3], 0.029 µM; at DYRK1A [2], 0.131 µM.

In the case of `Cc1nc2ccc(-c3cc(N)nc(N)c3)nc2n1CCc1ccc(Cl)c(Cl)c1` [Example 58, 4-{3-[2-(3,4-dichlorophenyl)ethyl]-2-methyl-3H-imidazo[4,5-b]pyridin-5-yl}pyridine-2,6-diamine], the IC50 in test [1] was 0.013 µM; on DYRK1B, 0.013 µM; on CDK9, above 10 µM; against DYRK1A [3] it was 0.003 µM; on DYRK1A [2], 0.08 µM.

Regarding `Cc1nc2ccc(-c3cc(N)nc(N)c3)nc2[nH]1` [Example 61, 4-(2-methyl-3H-imidazo[4,5-b]pyridin-5-yl)pyridine-2,6-diamine], the IC50 was 0.009 µM in test [1]; 0.004 µM at DYRK1B; above 10 µM against CDK9; 0.002 µM against DYRK1A [3]; 0.155 µM on DYRK1A [2].

Consider `Cc1ccccc1CCn1c(C)nc2ccc(-c3cc(N)nc(N)c3)nc21` [Example 63, 4-{2-methyl-3-[2-(2-methylphenyl)ethyl]-3H-imidazo[4,5-b]pyridin-5-yl}pyridine-2,6-diamine], for which the IC50 in test [1] was 0.008 µM; against DYRK1B, 0.007 µM; against CDK9, above 10 µM; against DYRK1A [3] it was 0.003 µM; at DYRK1A [2] it was 0.024 µM.

Regarding `Cc1nc2ccc(-c3cc(N)nc(N)c3)nc2n1C1CCSCC1` [Example 66, 4-[2-methyl-3-(tetrahydro-2H-thiopyran-4-yl)-3H-imidazo[4,5-b]pyridin-5-yl]pyridine-2,6-diamine], the IC50 in test [1] came to 0.009 µM; on DYRK1B it was 0.012 µM; against CDK9, 0.365 µM; against DYRK1A [3] it was 0.005 µM; at DYRK1A [2] it was 0.072 µM.

Turning to `Cc1nc2ccc(-c3cc(N)nc(N)c3)nc2n1CCC1CCOCC1` [Example 78, 4-{2-methyl-3-[2-(tetrahydro-2H-pyran-4-yl)ethyl]-3H-imidazo[4,5-b]pyridin-5-yl}pyridine-2,6-diamine], the IC50 in test [1] was found to be 0.025 µM; against CLK1 it was 0.018 µM; at DYRK1A [2], 0.133 µM.

As for `Cc1nc2ccc(-c3cc(N)nc(N)c3)nc2n1CCc1ccccc1C(F)(F)F` [Example 79, 4-(2-methyl-3-{2-[2-(trifluoromethyl)phenyl]ethyl}-3H-imidazo[4,5-b]pyridin-5-yl)pyridine-2,6-diamine], the IC50 in test [1] stood at 0.021 µM; against CLK1 it was 0.014 µM; at DYRK1A [2], 0.068 µM.

Turning to `COc1ccccc1CCn1c(C)nc2ccc(-c3cc(N)nc(N)c3)nc21` [Example 81, 4-{3-[2-(2-methoxyphenyl)ethyl]-2-methyl-3H-imidazo[4,5-b]pyridin-5-yl}pyridine-2,6-diamine], the values for the IC50 (in test [1]; on CLK1; on DYRK1A [2]) were 0.021 µM, 0.015 µM and 0.094 µM, respectively.

On to `CCOc1cccc(CCn2c(C)nc3ccc(-c4cc(N)nc(N)c4)nc32)c1` [Example 90, 4-{3-[2-(3-ethoxyphenyl)ethyl]-2-methyl-3H-imidazo[4,5-b]pyridin-5-yl}pyridine-2,6-diamine], for which the IC50 in test [1] amounted to 0.015 µM; at CLK1, 0.016 µM; on DYRK1A [2] it was 0.129 µM.

As for `Cc1nc2ccc(-c3cc(N)nc(N)c3)nc2n1CC1CC1c1ccccc1` (stereo not shown) [Example 97, 4-{2-methyl-3-[(2-phenylcyclopropyl)methyl]-3H-imidazo[4,5-b]pyridin-5-yl}pyridine-2,6-diamine], the IC50 in test [1] worked out at 0.015 µM; on CLK1, 0.021 µM; at DYRK1A [2], 0.097 µM.

As for `Cc1nc2ccc(-c3cc(N)nc(N)c3)nc2n1C1CC(c2ccccc2)C1` (stereo not shown) [Example 100, 4-[2-methyl-3-(3-phenylcyclobutyl)-3H-imidazo[4,5-b]pyridin-5-yl]pyridine-2,6-diamine], the values for the IC50 (in test [1]; on CLK1; on DYRK1A [2]) were 0.006 µM, 0.014 µM and 0.006 µM, respectively.

On to `Cc1nc2ccc(-c3cc(N)nc(N)c3)nc2n1CCC(F)(F)F` [Example 108, 4-[2-methyl-3-(3,3,3-trifluoropropyl)-3H-imidazo[4,5-b]pyridin-5-yl]pyridine-2,6-diamine], for which the IC50 in test [1] was 0.017 µM; on CLK1, 0.026 µM; on DYRK1A [2], 0.109 µM.

In the case of `CCCCc1nc2ccc(-c3cc(N)nc(N)c3)nc2n1C1CCCC1` [Example 145, 4-(2-butyl-3-cyclopentyl-3H-imidazo[4,5-b]pyridin-5-yl)pyridine-2,6-diamine], the IC50 came out at 0.03 µM in test [1], 0.115 µM against CLK1 and 0.171 µM at DYRK1A [2].

Turning to `Cc1nc2ccc(-c3cc(N)nc(N)c3)nc2n1[C@H](C)c1ccnc(F)c1` [Example 149, 4-{3-[(1R)-1-(2-fluoropyridin-4-yl)ethyl]-2-methyl-3H-imidazo[4,5-b]pyridin-5-yl}pyridine-2,6-diamine], the IC50 in test [1] is 0.026 µM; on DYRK1B it was 0.004 µM; against CDK9, above 10 µM; at DYRK1A [3], 0.01 µM; on DYRK1A [2], 0.33 µM.

Consider `COCCCn1c(C)nc2ccc(-c3cc(N)nc(N)c3)nc21` [Example 150, 4-[3-(3-methoxypropyl)-2-methyl-3H-imidazo[4,5-b]pyridin-5-yl]pyridine-2,6-diamine], for which the IC50 in test [1] was found to be 0.019 µM; at DYRK1B, 0.014 µM; against CDK9, 3.03 µM; against DYRK1A [3], 0.006 µM; at DYRK1A [2], 0.28 µM.

With `COc1cccc(CCn2c(C)nc3ccc(-c4cc(N)nc(N)c4)nc32)c1` [Example 152, 4-{3-[2-(3-methoxyphenyl)ethyl]-2-methyl-3H-imidazo[4,5-b]pyridin-5-yl}pyridine-2,6-diamine], the IC50 in test [1] is 0.012 µM; against DYRK1B, 0.007 µM; against CDK9, above 10 µM; on DYRK1A [3] it was 0.002 µM; at DYRK1A [2], 0.22 µM.

For the molecule `CCc1nc2ccc(-c3cc(N)nc(N)c3)nc2n1C1CCCC1` [Example 156, 4-(3-cyclopentyl-2-ethyl-3H-imidazo[4,5-b]pyridin-5-yl)pyridine-2,6-diamine], the IC50 was determined as 0.017 µM in test [1]; 0.016 µM on DYRK1B; 0.554 µM against CDK9; 0.013 µM against DYRK1A [3]; 0.151 µM on DYRK1A [2].

`Cc1nc2ccc(-c3cc(N)nc(N)c3)nc2n1CCOc1ccc(F)cc1` [Example 198, 4-{3-[2-(4-fluorophenoxy)ethyl]-2-methyl-3H-imidazo[4,5-b]pyridin-5-yl}pyridine-2,6-diamine]: the results for the IC50 (in test [1]; at CLK1; on DYRK1A [2]) were 0.025 µM, 0.017 µM and 0.092 µM, respectively.

For `Cc1nc2ccc(-c3cc(N)nc(N)c3)nc2n1CCOc1ccccn1` [Example 217, 4-{2-methyl-3-[2-(pyridin-2-yloxy)ethyl]-3H-imidazo[4,5-b]pyridin-5-yl}pyridine-2,6-diamine], the IC50 in test [1] was determined as 0.01 µM; against DYRK1B, 0.008 µM; at CDK9, 0.881 µM; on DYRK1A [3] it was 0.006 µM; on DYRK1A [2], 0.089 µM.

With `C=CCn1c(C#N)nc2ccc(-c3cc(N)nc(N)c3)nc21` [Example 225, 5-(2,6-diaminopyridin-4-yl)-3-(prop-2-en-1-yl)-3H-imidazo[4,5-b]pyridine-2-carbonitrile], the IC50 in test [1] was 0.012 µM; at CLK1 it was 0.021 µM.
